#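 GI50 marks 50% less growth. TGI denotes the concentration required for complete inhibition of growth.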
# How the values were obtained:
# Experiment in all cases: DTP human tumour cell line panel, 384-well format
# [1] = test system: SK-MEL-28 melanoma
# [2] = test system: UACC-257 melanoma
# [3] = test system: ACHN renal
# [4] = test system: SNB-75 CNS
# [5] = test system: PC-3 prostate
# [6] = test system: TK-10 renal
# [7] = test system: SN12C renal
# [8] = test system: U251 glioblastoma
# [9] = test system: CCRF-CEM leukemia
# [10] = test system: HT29 colon
# [11] = test system: UACC-62 melanoma
# [12] = test system: HCT-15 colon
# [13] = test system: IGROV1 ovarian
# [14] = test system: CAKI-1 renal
# [15] = test system: SF-539 CNS
# [16] = test system: NCI-H522 lung
# [17] = test system: NCI-H460 NSCLC
# [18] = test system: OVCAR-8 ovarian
# [19] = test system: SR leukemia
# [20] = test system: HS 578T breast
# [21] = test system: SF-268 CNS
# [22] = test system: BT-549 breast
# [23] = test system: MOLT-4 leukemia
# [24] = test system: DU-145 prostate
# [25] = test system: RPMI-8226 leukemia
# [26] = test system: NCI-H226 lung
# [27] = test system: SNB-19 CNS
# [28] = test system: SK-OV-3 ovarian
# [29] = test system: OVCAR-3 ovarian
# [30] = test system: T-47D breast
# [31] = test system: HOP-92 NSCLC
# [32] = test system: K-562 leukemia
# [33] = test system: NCI/ADR-RES ovarian
# [34] = test system: A498 renal
# [35] = test system: OVCAR-5 ovarian
# [36] = test system: M14 melanoma
# [37] = test system: MDA-MB-435 melanoma
# [38] = test system: HL-60(TB) leukemia
# [39] = test system: UO-31 renal
# [40] = test system: SF-295 CNS
# [41] = test system: MDA-MB-231 breast
# [42] = test system: RXF 393 renal
# [43] = test system: COLO 205 colon
# [44] = test system: OVCAR-4 ovarian
# [45] = test system: SK-MEL-2 melanoma
# [46] = test system: LOX IMVI melanoma
# [47] = test system: A549 NSCLC
# [48] = test system: MALME-3M melanoma
# [49] = test system: SW-620 colon
# [50] = test system: HCT-116 colon
# [51] = test system: MDA-MB-468 breast
# [52] = test system: EKVX NSCLC
# [53] = test system: KM12 colon
# [54] = test system: NCI-H322M lung
# [55] = test system: HCC-2998 colon
# [56] = test system: 786-0 renal
# [57] = test system: NCI-H23 lung
# [58] = test system: MCF7 breast
# [59] = test system: HOP-62 NSCLC
# [60] = test system: SK-MEL-5 melanoma
compound,measurement,setting,value
O=C(c1ccc(Oc2ccccc2)cc1Cl)c1c[nH]c2ncnc(N[C@@H]3CC[C@@H](CO)OC3)c12,GI50,[1],0.0133 µM
same,TGI,[1],0.0558 µM
same,GI50,[2],0.0217 µM
same,TGI,[2],0.0839 µM
same,GI50,[3],0.121 µM
same,TGI,[3],0.983 µM
same,GI50,[4],0.801 µM
same,TGI,[4],2.28 µM
same,GI50,[5],2.32 µM
same,TGI,[5],11.6 µM
same,GI50,[6],0.185 µM
same,TGI,[6],0.543 µM
same,GI50,[7],0.193 µM
same,TGI,[7],1.38 µM
same,GI50,[8],0.462 µM
same,TGI,[8],2.51 µM
same,GI50,[9],1.59 µM
same,TGI,[9],3.4 µM
same,GI50,[10],0.0334 µM
same,TGI,[10],1.3 µM
same,GI50,[11],0.0107 µM
same,TGI,[11],0.0547 µM
same,GI50,[12],0.51 µM
same,TGI,[12],3.34 µM
same,GI50,[13],0.0306 µM
same,TGI,[13],0.987 µM
same,GI50,[14],0.261 µM
same,TGI,[14],1.44 µM
same,GI50,[15],0.338 µM
same,TGI,[15],1.6 µM
same,GI50,[16],0.0494 µM
same,TGI,[16],0.366 µM
same,GI50,[17],0.771 µM
same,TGI,[17],3.65 µM
same,GI50,[18],0.39 µM
same,TGI,[18],2.08 µM
same,GI50,[19],0.186 µM
same,TGI,[19],0.343 µM
same,GI50,[20],0.7 µM
same,TGI,[20],2.12 µM
same,GI50,[21],0.482 µM
same,TGI,[21],4.89 µM
same,GI50,[22],0.313 µM
same,TGI,[22],1.46 µM
same,GI50,[23],0.296 µM
same,TGI,[23],1.82 µM
same,GI50,[24],0.354 µM
same,TGI,[24],1.48 µM
same,GI50,[25],0.696 µM
same,TGI,[25],2.19 µM
same,GI50,[26],0.135 µM
same,TGI,[26],0.937 µM
same,GI50,[27],0.372 µM
same,TGI,[27],3.95 µM
same,GI50,[28],0.201 µM
same,TGI,[28],0.965 µM
same,GI50,[29],0.13 µM
same,TGI,[29],3.18 µM
same,GI50,[30],0.52 µM
same,TGI,[30],3.21 µM
same,GI50,[31],0.273 µM
same,TGI,[31],1.19 µM
same,GI50,[32],0.153 µM
same,TGI,[32],0.399 µM
same,GI50,[33],1.13 µM
same,TGI,[33],2.48 µM
same,GI50,[34],0.519 µM
same,TGI,[34],2.77 µM
same,GI50,[35],0.153 µM
same,TGI,[35],0.938 µM
same,TGI,[36],0.0489 µM
same,GI50,[37],0.017 µM
same,TGI,[37],0.17 µM
same,GI50,[38],0.0368 µM
same,TGI,[38],0.196 µM
same,GI50,[39],0.305 µM
same,TGI,[39],1.45 µM
same,GI50,[40],1 µM
same,TGI,[40],3.33 µM
same,GI50,[41],0.0463 µM
same,TGI,[41],0.207 µM
same,GI50,[42],0.21 µM
same,TGI,[42],0.92 µM
same,GI50,[43],0.0177 µM
same,TGI,[43],0.113 µM
same,GI50,[44],1.13 µM
same,TGI,[44],7.2 µM
same,GI50,[45],0.127 µM
same,TGI,[45],0.289 µM
same,GI50,[46],0.0331 µM
same,TGI,[46],0.161 µM
same,GI50,[47],0.244 µM
same,TGI,[47],1.54 µM
same,TGI,[48],0.0247 µM
same,GI50,[49],0.151 µM
same,TGI,[49],1.27 µM
same,GI50,[50],0.248 µM
same,TGI,[50],1.11 µM
same,GI50,[51],0.303 µM
same,TGI,[51],1.87 µM
same,GI50,[52],0.113 µM
same,TGI,[52],1.07 µM
same,GI50,[53],0.0194 µM
same,TGI,[53],0.171 µM
same,GI50,[54],0.249 µM
same,TGI,[54],1.78 µM
same,GI50,[55],0.0299 µM
same,TGI,[55],0.204 µM
same,GI50,[56],1.11 µM
same,TGI,[56],4.61 µM
same,GI50,[57],0.067 µM
same,TGI,[57],0.385 µM
same,GI50,[58],0.255 µM
same,TGI,[58],1.91 µM
same,GI50,[59],0.638 µM
same,TGI,[59],2.66 µM
same,GI50,[60],0.0337 µM
same,TGI,[60],1.47 µM
